For orientation: ED50 means the dose that gives a 50% effect, or the effect in half of the subjects. What is called Ki is the equilibrium dissociation constant of an inhibitor or competing ligand from its target. A lower Ki goes with tighter binding.

Consider 17 molecules from ChEMBL document CHEMBL4330089, “Exploring structural properties of potent human carbonic anhydrase inhibitors bearing a 4-(cycloalkylamino-1-carbonyl)benzenesulfonamide moiety” (Eur J Med Chem, 2019).

For series [1], the species on record is Mus musculus. As to the kind of experiment: animal or person.
Description: Anticonvulsant activity in mouse assessed as reduction in PTZ-induced seizures
The next series concerns the target Carbonic anhydrase 9 (Homo sapiens, UniProt Q16790).
For series [2], the system named is Mus musculus. The experiment in a line: Anticonvulsant activity in ip dosed mouse assessed as reduction in PTZ-induced seizures pretreated for 30 mins followed by PTZ addition. In kind it is functional, organism-based.
A short description of series [3]: Toxicity in mouse assessed as sedation at 20 to 30 mg/kg. It is filed as organism-based. The conditions noted are these: in vivo.
Series [4] is described as follows: Toxicity in mouse in mouse model of PTZ-induced seizures assessed as clonus occurance at 20 to 30 mg/kg, ip pretreated for 30 mins followed by PTZ addition. The conditions noted are these: in vivo. In kind it is organism-based.

Molecules are shown by their SMILES. Activity calls are given as the source filed them. The calls are words filed in the database; no cut-off is given here.

Description for Carbonic anhydrase 9: Inhibition of human carbonic anhydrase-9 catalytic domain assessed as reduction in CO2 hydration after 15 mins by phenol red dye based stopped flow assay

For the molecule `CC1(C)O[C@@H]2[C@@H](CO[C@@]3(COS(N)(=O)=O)OC(C)(C)O[C@@H]23)O1` [TOPIRAMATE], in the series filed under Mus musculus [1], the ED50 turned out to be 22 mg/kg.
`NS(=O)(=O)c1ccc(C(=O)N2CCC(Cc3ccccc3)CC2)cc1` gave a Ki on Carbonic anhydrase 9 of 7 nM.
Regarding `NS(=O)(=O)c1ccc(C(=O)N2CCN(Cc3ccc(F)cc3)CC2)cc1`, the Ki on Carbonic anhydrase 9 is 45.1 nM. Further, the outcome in the series on Mus musculus [2] was Active. For the same molecule, the Activity entry in series [3] and in series [4] was “Toxic” each time.
`N#CC1(c2ccccc2)CCN(C(=O)c2ccc(S(N)(=O)=O)cc2)CC1` had a Ki on Carbonic anhydrase 9 of 18.4 nM.
Regarding `CC1CCCCN1C(=O)c1ccc(S(N)(=O)=O)cc1` (centres undefined), the affinity at Carbonic anhydrase 9 corresponds to a Ki of 2.6 nM.
Still for that read-out and setting: with `NS(=O)(=O)c1ccc(C(=O)N2CCCCC2)cc1` the figure was 3.1 nM.
The molecule `NS(=O)(=O)c1ccc(C(=O)N2CCC(c3ccccc3)CC2)cc1` registered a Ki on Carbonic anhydrase 9 of 3.3 nM. Further, in the series with Mus musculus [2], the result was Active. Moreover, the Activity result in series [3] and in series [4] was “Toxic” each time.
`NS(=O)(=O)c1ccc(C(=O)N2CCN(C(c3ccccc3)c3ccccc3)CC2)cc1` returned a Ki on Carbonic anhydrase 9 of 28.2 nM. The result in the series with Mus musculus [2] was Active. For the same molecule, the Activity entry in series [3] and in series [4] was “Toxic” throughout.
At Carbonic anhydrase 9, `NS(=O)(=O)c1ccc(C(=O)N2CCC(O)(c3ccc(Br)cc3)CC2)cc1` showed a Ki of 4.7 nM. The outcome with Mus musculus [2] was Active. For the same molecule, the Activity result in series [3] and in series [4] was “Toxic” in each case.
`NS(=O)(=O)c1ccc(C(=O)N2CCCCCC2)cc1` came in with a Ki on Carbonic anhydrase 9 of 16.8 nM.
At Carbonic anhydrase 9, `NS(=O)(=O)c1ccc(C(=O)N2CCN(Cc3ccccc3)CC2)cc1` registered a Ki of 33.1 nM.
On the same count and under the same terms, with `CC1CCCN(C(=O)c2ccc(S(N)(=O)=O)cc2)C1` (centres undefined) the figure was 2.4 nM; with `CC1CCN(C(=O)c2ccc(S(N)(=O)=O)cc2)CC1`, 3.4 nM; with `CC(=O)C1(c2ccccc2)CCN(C(=O)c2ccc(S(N)(=O)=O)cc2)CC1`, 3.1 nM.
On the same count and under the same terms, in the case of `NS(=O)(=O)c1ccc(C(=O)N2CCC(O)(c3ccccc3)CC2)cc1` it was 22.6 nM; in that of `NS(=O)(=O)c1ccc(C(=O)N2CCC(O)(c3ccc(Cl)cc3)CC2)cc1`, 24.9 nM.
In turn, `NS(=O)(=O)c1ccc(C(=O)N2CCN(c3ccccc3)CC2)cc1` came in with a Ki on Carbonic anhydrase 9 of 4.8 nM.
